{
  "source": "paper PMC10088252",
  "data": [
    {"smiles": "O=C(Nc1ccc(Oc2ccnc3c2CCN3)c(F)c1)c1c[nH]cc(-c2ccc(F)cc2)c1=O", "values": [
      {"measurement": "TRAE Hyperhidrosis, grade 3-4", "setting": "450 mg QD (n=12)", "result": "0 n (%)"},
      {"measurement": "TRAE Hyperlipidaemia, any grade", "setting": "450 mg QD (n=12)", "result": "0 n (%)"},
      {"measurement": "TRAE Hyperlipidaemia, grade 3-4", "setting": "450 mg QD (n=12)", "result": "0 n (%)"},
      {"measurement": "TRAE Hypertension, any grade", "setting": "450 mg QD (n=12)", "result": "0 n (%)"},
      {"measurement": "TRAE Hypertension, grade 3-4", "setting": "450 mg QD (n=12)", "result": "0 n (%)"},
      {"measurement": "TRAE Hypoaesthesia oral, any grade", "setting": "450 mg QD (n=12)", "result": "2 (16.7) n (%)"},
      {"measurement": "TRAE Hypoaesthesia oral, grade 3-4", "setting": "450 mg QD (n=12)", "result": "0 n (%)"},
      {"measurement": "TRAE Hypocalcaemia, any grade", "setting": "450 mg QD (n=12)", "result": "0 n (%)"},
      {"measurement": "TRAE Hypocalcaemia, grade 3-4", "setting": "450 mg QD (n=12)", "result": "0 n (%)"},
      {"measurement": "TRAE Hypotension, any grade", "setting": "450 mg QD (n=12)", "result": "0 n (%)"},
      {"measurement": "TRAE Hypotension, grade 3-4", "setting": "450 mg QD (n=12)", "result": "0 n (%)"},
      {"measurement": "TRAE Insomnia, any grade", "setting": "450 mg QD (n=12)", "result": "0 n (%)"},
      {"measurement": "TRAE Insomnia, grade 3-4", "setting": "450 mg QD (n=12)", "result": "0 n (%)"},
      {"measurement": "TRAE Leukopenia, any grade", "setting": "450 mg QD (n=12)", "result": "1 (8.3) n (%)"},
      {"measurement": "TRAE Leukopenia, grade 3-4", "setting": "450 mg QD (n=12)", "result": "0 n (%)"},
      {"measurement": "TRAE Nausea, any grade", "setting": "450 mg QD (n=12)", "result": "0 n (%)"},
      {"measurement": "TRAE Nausea, grade 3-4", "setting": "450 mg QD (n=12)", "result": "0 n (%)"},
      {"measurement": "TRAE Neuritis, any grade", "setting": "450 mg QD (n=12)", "result": "0 n (%)"},
      {"measurement": "TRAE Neuritis, grade 3-4", "setting": "450 mg QD (n=12)", "result": "0 n (%)"},
      {"measurement": "TRAE Occult blood, any grade", "setting": "450 mg QD (n=12)", "result": "1 (8.3) n (%)"},
      {"measurement": "TRAE Occult blood, grade 3-4", "setting": "450 mg QD (n=12)", "result": "0 n (%)"},
      {"measurement": "TRAE Oedema peripheral, any grade", "setting": "450 mg QD (n=12)", "result": "1 (8.3) n (%)"},
      {"measurement": "TRAE Oedema peripheral, grade 3-4", "setting": "450 mg QD (n=12)", "result": "0 n (%)"},
      {"measurement": "TRAE Onycholysis, any grade", "setting": "450 mg QD (n=12)", "result": "1 (8.3) n (%)"},
      {"measurement": "TRAE Onycholysis, grade 3-4", "setting": "450 mg QD (n=12)", "result": "0 n (%)"},
      {"measurement": "TRAE Oropharyngeal pain, any grade", "setting": "450 mg QD (n=12)", "result": "0 n (%)"},
      {"measurement": "TRAE Oropharyngeal pain, grade 3-4", "setting": "450 mg QD (n=12)", "result": "0 n (%)"},
      {"measurement": "TRAE PPE, any grade", "setting": "450 mg QD (n=12)", "result": "3 (25.0) n (%)"},
      {"measurement": "TRAE PPE, grade 3-4", "setting": "450 mg QD (n=12)", "result": "1 (8.3) n (%)"},
      {"measurement": "TRAE Paraesthesia, any grade", "setting": "450 mg QD (n=12)", "result": "1 (8.3) n (%)"},
      {"measurement": "TRAE Paraesthesia, grade 3-4", "setting": "450 mg QD (n=12)", "result": "0 n (%)"},
      {"measurement": "TRAE Proteinuria, any grade", "setting": "450 mg QD (n=12)", "result": "3 (25.0) n (%)"},
      {"measurement": "TRAE Proteinuria, grade 3-4", "setting": "450 mg QD (n=12)", "result": "1 (8.3) n (%)"},
      {"measurement": "TRAE Pruritus, any grade", "setting": "450 mg QD (n=12)", "result": "1 (8.3) n (%)"},
      {"measurement": "TRAE Pruritus, grade 3-4", "setting": "450 mg QD (n=12)", "result": "0 n (%)"},
      {"measurement": "TRAE Rash maculo-papular, any grade", "setting": "450 mg QD (n=12)", "result": "0 n (%)"},
      {"measurement": "TRAE Rash maculo-papular, grade 3-4", "setting": "450 mg QD (n=12)", "result": "0 n (%)"},
      {"measurement": "TRAE Sinus tachycardia, any grade", "setting": "450 mg QD (n=12)", "result": "0 n (%)"},
      {"measurement": "TRAE Sinus tachycardia, grade 3-4", "setting": "450 mg QD (n=12)", "result": "0 n (%)"},
      {"measurement": "TRAE Skin fissures, any grade", "setting": "450 mg QD (n=12)", "result": "0 n (%)"},
      {"measurement": "TRAE Skin fissures, grade 3-4", "setting": "450 mg QD (n=12)", "result": "0 n (%)"},
      {"measurement": "TRAE Supraventricular extrasystoles, any grade", "setting": "450 mg QD (n=12)", "result": "0 n (%)"},
      {"measurement": "TRAE Supraventricular extrasystoles, grade 3-4", "setting": "450 mg QD (n=12)", "result": "0 n (%)"},
      {"measurement": "TRAE Thrombocytopenia, any grade", "setting": "450 mg QD (n=12)", "result": "0 n (%)"},
      {"measurement": "TRAE Thrombocytopenia, grade 3-4", "setting": "450 mg QD (n=12)", "result": "0 n (%)"},
      {"measurement": "TRAE Upper respiratory tract infection, any grade", "setting": "450 mg QD (n=12)", "result": "0 n (%)"},
      {"measurement": "TRAE Upper respiratory tract infection, grade 3-4", "setting": "450 mg QD (n=12)", "result": "0 n (%)"},
      {"measurement": "TRAE Urinary retention, any grade", "setting": "450 mg QD (n=12)", "result": "0 n (%)"},
      {"measurement": "TRAE Urinary retention, grade 3-4", "setting": "450 mg QD (n=12)", "result": "0 n (%)"},
      {"measurement": "TRAE Urinary tract infection, any grade", "setting": "450 mg QD (n=12)", "result": "1 (8.3) n (%)"},
      {"measurement": "TRAE Urinary tract infection, grade 3-4", "setting": "450 mg QD (n=12)", "result": "0 n (%)"},
      {"measurement": "TRAE Ventricular arrhythmia, any grade", "setting": "450 mg QD (n=12)", "result": "1 (8.3) n (%)"},
      {"measurement": "TRAE Ventricular arrhythmia, grade 3-4", "setting": "450 mg QD (n=12)", "result": "0 n (%)"},
      {"measurement": "TRAE Ventricular extrasystoles, any grade", "setting": "450 mg QD (n=12)", "result": "0 n (%)"},
      {"measurement": "TRAE Ventricular extrasystoles, grade 3-4", "setting": "450 mg QD (n=12)", "result": "0 n (%)"},
      {"measurement": "TRAE Vomiting, any grade", "setting": "450 mg QD (n=12)", "result": "1 (8.3) n (%)"},
      {"measurement": "TRAE Vomiting, grade 3-4", "setting": "450 mg QD (n=12)", "result": "0 n (%)"},
      {"measurement": "TRAE Weight loss, any grade", "setting": "450 mg QD (n=12)", "result": "0 n (%)"},
      {"measurement": "TRAE Weight loss, grade 3-4", "setting": "450 mg QD (n=12)", "result": "0 n (%)"},
      {"measurement": "patients with TEAE of pulmonary infection leading to death, deemed unrelated", "setting": "450 mg QD cohort", "result": "One"},
      {"measurement": "TRAE Accessory nerve disorder, any grade", "setting": "600 mg QD (n=10)", "result": "0 n (%)"},
      {"measurement": "TRAE Accessory nerve disorder, grade 3-4", "setting": "600 mg QD (n=10)", "result": "0 n (%)"},
      {"measurement": "TRAE Activated partial thromboplastin time prolonged, any grade", "setting": "600 mg QD (n=10)", "result": "0 n (%)"},
      {"measurement": "TRAE Activated partial thromboplastin time prolonged, grade 3-4", "setting": "600 mg QD (n=10)", "result": "0 n (%)"},
      {"measurement": "TRAE Anaemia, any grade", "setting": "600 mg QD (n=10)", "result": "1 (10.0) n (%)"},
      {"measurement": "TRAE Anaemia, grade 3-4", "setting": "600 mg QD (n=10)", "result": "0 n (%)"},
      {"measurement": "TRAE Anaesthesia oral, any grade", "setting": "600 mg QD (n=10)", "result": "1 (10.0) n (%)"},
      {"measurement": "TRAE Anaesthesia oral, grade 3-4", "setting": "600 mg QD (n=10)", "result": "0 n (%)"},
      {"measurement": "TRAE Arrhythmia, any grade", "setting": "600 mg QD (n=10)", "result": "1 (10.0) n (%)"},
      {"measurement": "TRAE Arrhythmia, grade 3-4", "setting": "600 mg QD (n=10)", "result": "0 n (%)"},
      {"measurement": "TRAE Arthralgia, any grade", "setting": "600 mg QD (n=10)", "result": "0 n (%)"},
      {"measurement": "TRAE Arthralgia, grade 3-4", "setting": "600 mg QD (n=10)", "result": "0 n (%)"},
      {"measurement": "TRAE Asthenia, any grade", "setting": "600 mg QD (n=10)", "result": "3 (30.0) n (%)"},
      {"measurement": "TRAE Asthenia, grade 3-4", "setting": "600 mg QD (n=10)", "result": "1 (10.0) n (%)"},
      {"measurement": "TRAE Blister, any grade", "setting": "600 mg QD (n=10)", "result": "0 n (%)"},
      {"measurement": "TRAE Blister, grade 3-4", "setting": "600 mg QD (n=10)", "result": "0 n (%)"},
      {"measurement": "TRAE Chest discomfort, any grade", "setting": "600 mg QD (n=10)", "result": "0 n (%)"},
      {"measurement": "TRAE Chest discomfort, grade 3-4", "setting": "600 mg QD (n=10)", "result": "0 n (%)"},
      {"measurement": "TRAE Chronic kidney disease, any grade", "setting": "600 mg QD (n=10)", "result": "0 n (%)"},
      {"measurement": "TRAE Chronic kidney disease, grade 3-4", "setting": "600 mg QD (n=10)", "result": "0 n (%)"},
      {"measurement": "TRAE Constipation, any grade", "setting": "600 mg QD (n=10)", "result": "1 (10.0) n (%)"},
      {"measurement": "TRAE Constipation, grade 3-4", "setting": "600 mg QD (n=10)", "result": "0 n (%)"},
      {"measurement": "TRAE Cough, any grade", "setting": "600 mg QD (n=10)", "result": "1 (10.0) n (%)"},
      {"measurement": "TRAE Cough, grade 3-4", "setting": "600 mg QD (n=10)", "result": "0 n (%)"}
    ]}
  ]
}
